Test results: patent US6737383B1, “Herbicidal oxadiazolidines” (priority 1999, dated 2004)

What was measured:
Conditions in all cases: Preemergence
purple nutsedge = experiment: Test B pre/postemergence purple nutsedge; format: in vivo, Cyperus rotundus
In short: (§1)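 Herbicidal effect was estimated by eye on a ten-point control scale after plants spent twelve to sixteen days in a greenhouse following soil or foliar treatment. Foliar sprays targeted plants at one to four leaves; all doses were formulated in a non-phytotoxic solvent with surfactant.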

crabgrass = experiment: Test B pre/postemergence crabgrass; format: in vivo, Digitaria sanguinalis
In short: as §1

pigweed = experiment: Test B pre/postemergence pigweed; format: in vivo, Amaranthus retroflexus
In short: as §1

blackgrass = experiment: Test B pre/postemergence blackgrass; format: in vivo, Alopecurus myosuroides
In short: as §1

wheat = experiment: Test B pre/postemergence wheat; format: in vivo, Triticum aestivum
In short: as §1

bedstraw = experiment: Test B pre/postemergence bedstraw; format: in vivo, Galium aparine
In short: as §1

wild oat = experiment: Test B pre/postemergence wild oat; format: in vivo, Avena fatua
In short: as §1

giant foxtail = experiment: Test B pre/postemergence giant foxtail; format: in vivo, Setaria faberii
In short: as §1

sugar beet = experiment: Test B pre/postemergence sugar beet; format: in vivo, Beta vulgaris
In short: as §1

surinam grass = experiment: Test B pre/postemergence surinam grass; format: in vivo, Brachiaria decumbens
In short: as §1

cocklebur = experiment: Test B pre/postemergence cocklebur; format: in vivo, Xanthium strumarium
In short: as §1

velvetleaf = experiment: Test B pre/postemergence velvetleaf; format: in vivo, Abutilon theophrasti
In short: as §1

rape = experiment: Test B pre/postemergence rape; format: in vivo, Brassica napus
In short: as §1

morningglory = experiment: Test B pre/postemergence morningglory; format: in vivo, Ipomoea hederacea
In short: as §1

corn = experiment: Test B pre/postemergence corn; format: in vivo, Zea mays
In short: as §1

soybean = experiment: Test B pre/postemergence soybean; format: in vivo, Glycine max
In short: as §1

[1] = Rate 62 g/ha, scale of 0 to 10 where 0 is no effect and 10 is complete control
[2] = Rate 250 g/ha, scale 0 (no effect) to 10 (complete control)
[3] = Rate 125 g/ha, scale of 0 to 10 where 0 is no effect and 10 is complete control
[4] = Rate 500 g/ha, scale 0 to 10 (0 no effect, 10 complete control)

COC(CCl)n1c(=O)on(C(=O)N(c2ccccc2)C(C)C)c1=O (stereo not shown) [Compound 735]
Nutsedge plant response rating (purple nutsedge; [1]): 0 | Nutsedge plant response rating (purple nutsedge; [2]): 0 | Crabgrass plant response rating (crabgrass; [1]): 10 | Plant response rating, Crabgrass (crabgrass; [3]): 10 | Crabgrass plant response rating (crabgrass; [2]): 10 | Crabgrass plant response rating (crabgrass; [4]): 10 | Redroot pigweed plant response rating (pigweed; [1]): 5 | Plant response rating, Redroot pigweed (pigweed; [3]): 7 | Redroot pigweed plant response rating (pigweed; [2]): 8 | Redroot pigweed plant response rating (pigweed; [4]): 9 | Blackgrass plant response rating (blackgrass; [1]): 8 | Plant response rating, Blackgrass (blackgrass; [3]): 10 | Blackgrass plant response rating (blackgrass; [2]): 10 | Blackgrass plant response rating (blackgrass; [4]): 10 | Wheat plant response rating (wheat; [1]): 0 | Plant response rating, Wheat (wheat; [3]): 0 | Wheat plant response rating (wheat; [4]): 2 | Bedstraw plant response rating (bedstraw; [1]): 0 | Plant response rating, Bedstraw (bedstraw; [3]): 0 | Bedstraw plant response rating (bedstraw; [2]): 0 | Bedstraw plant response rating (bedstraw; [4]): 0 | Wild oats plant response rating (wild oat; [1]): 6 | Plant response rating, Wild oats (wild oat; [3]): 8 | Wild oats plant response rating (wild oat; [2]): 8 | Wild oats plant response rating (wild oat; [4]): 10 | Giant foxtail plant response rating (giant foxtail; [1]): 9 | Plant response rating, Giant foxtail (giant foxtail; [3]): 10 | Giant foxtail plant response rating (giant foxtail; [2]): 10 | Giant foxtail plant response rating (giant foxtail; [4]): 10 | Sugarbeets plant response rating (sugar beet; [1]): 0 | Plant response rating, Sugarbeets (sugar beet; [3]): 2 | Sugarbeets plant response rating (sugar beet; [2]): 6 | Sugarbeets plant response rating (sugar beet; [4]): 7 | B. signalgrass plant response rating (surinam grass; [1]): 7 | Plant response rating, B. signalgrass (surinam grass; [3]): 8 | B. signalgrass plant response rating (surinam grass; [2]): 9 | B. signalgrass plant response rating (surinam grass; [4]): 10 | Cocklebur plant response rating (cocklebur; [1]): 0 | Plant response rating, Cocklebur (cocklebur; [3]): 0 | Cocklebur plant response rating (cocklebur; [2]): 0 | Cocklebur plant response rating (cocklebur; [4]): 0 | Velvetleaf plant response rating (velvetleaf; [1]): 0 | Plant response rating, Velvetleaf (velvetleaf; [3]): 0 | Velvetleaf plant response rating (velvetleaf; [2]): 3 | Velvetleaf plant response rating (velvetleaf; [4]): 3 | Rape plant response rating (rape; [1]): 1 | Plant response rating, Rape (rape; [3]): 6 | Rape plant response rating (rape; [2]): 8 | Rape plant response rating (rape; [4]): 8 | Morningglory plant response rating (morningglory; [1]): 0 | Plant response rating, Morningglory (morningglory; [3]): 0 | Morningglory plant response rating (morningglory; [2]): 2 | Morningglory plant response rating (morningglory; [4]): 2 | Corn plant response rating (corn; [1]): 0 | Plant response rating, Corn (corn; [3]): 6 | Corn plant response rating (corn; [2]): 8 | Corn plant response rating (corn; [4]): 9 | Soybean plant response rating (soybean; [1]): 0 | Plant response rating, Soybean (soybean; [3]): 0 | Soybean plant response rating (soybean; [2]): 0 | Soybean plant response rating (soybean; [4]): 0
